These results are taken from PMC9490041, “Determinants of affinity, specificity, and phase separation in a supramodule from Post-synaptic density protein 95” (iScience, 2022).

Broadly, the IC50 is the concentration that gives 50% inhibition. The Ki is a dissociation constant, usually derived from enzyme kinetics or from competition with a known ligand. In general, Kd refers to the concentration at which binding is half-saturated.

One assay concerns the target PSG G322A (PSD-95). Description: FP displacement (competition) of FITC-15 AA CRIPT by library peptide, IC50 and Ki. Particulars: for IC50: read-out: IC50 (µM), PSG G322A; for Ki: read-out: Ki (µM), PSG G322A.
The target in the next assay is PSG G335A (PSD-95). The description is as above. Particulars: for IC50: read-out: IC50 (µM), PSG G335A; for Ki: read-out: Ki (µM), PSG G335A.
In a further assay the target is PSG F325A (PSD-95). The description is as above. To be noted: for IC50: read-out: IC50 (µM), PSG F325A.
Assay [1] concerns the target PSG (PSD-95). The description is as above. To be noted: for IC50: read-out: IC50 (µM), PSG.
For assay [2], the target named is PSG G322A G335A (PSD-95). The assay is described as above. Particulars: for IC50: read-out: IC50 (µM), PSG G322A G335A.
In assay [3] the target is PSG G322A G335A (PSD-95). Description: FP saturation binding of FITC-15 AA CRIPT probe. To be noted: read-out: Kd probe, 5 nM FITC-15 AA CRIPT, room temperature.
The target in assay [4] is PSG (PSD-95). Description: FP saturation binding of FITC-15 AA CRIPT probe. Particulars: read-out: Kd probe, 5 nM FITC-15 AA CRIPT, room temperature, PSG WT.
The next assay deals with PDZ3 (PSD-95) (Homo sapiens, UniProt P78352). Description: FP displacement (competition) of FITC-15 AA CRIPT by library peptide, IC50 and Ki.
Chain of PDZ3 (PSD-95) (P78352 313-393 limits assumed): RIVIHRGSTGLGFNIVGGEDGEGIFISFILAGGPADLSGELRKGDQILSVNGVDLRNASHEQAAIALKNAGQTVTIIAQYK
Another assay has as its system PDZ1-2 (PSD-95). Description: Isothermal titration calorimetry. Particulars: ITC. In kind it is binding. (In general: ITC needs no label: the signal is the heat of the interaction.)
[5] abbreviates: FP displacement of FITC-15 AA CRIPT probe by PSD library peptide, protein PSG G322A.
Where [6] appears, read: FP displacement of FITC-15 AA CRIPT probe by PSD library peptide, protein PSG G335A.
Where [7] appears, read: FP displacement of 5 nM FITC-15 AA CRIPT by non-labeled acetylated peptide, room temperature, Ki from IC50, technical triplicates, PSG.
Where [8] appears, read: FP displacement of FITC-15 AA CRIPT probe by acetylated PSD library peptide.
Setting [9] is: read-out: Ki (µM), PSG, FP displacement of FITC-15 AA CRIPT probe by acetylated PSD library peptide.
Where [10] appears, read: FP displacement of FITC-15 AA CRIPT probe by acetylated PSD library peptide (P-13 to P0 plus extra N-terminal Y).
[11] abbreviates: read-out: Ki (µM), PSG G322A G335A, FP displacement of FITC-15 AA CRIPT probe by acetylated PSD library peptide.
[12] abbreviates: Ki (µM), PDZ3, FP displacement of FITC-15 AA CRIPT probe by acetylated PSD library peptide.
Setting [13] is: Ki, FP displacement of 5 nM FITC-15 AA CRIPT by non-labeled acetylated peptide, room temperature, Ki from IC50, technical triplicates, PDZ3.
Where [14] appears, read: FP displacement of FITC-15 AA CRIPT probe by library peptide.

Read-outs that look alike come from different tables or passages of the source. Ends that are not written are not given here.

For `CC[C@H](C)[C@H](NC(=O)[C@H](CCCCN)NC(=O)[C@@H]1CCCN1C(=O)[C@H](CC(C)C)NC(=O)[C@H](CCCNC(=N)N)NC(=O)[C@H](Cc1c[nH]cn1)NC(=O)[C@H](CO)NC(=O)CNC(=O)[C@H](CC(=O)O)NC(=O)[C@H](Cc1ccc(O)cc1)NC(C)=O)C(=O)N[C@@H](CCCCN)C(=O)N[C@@H](CCC(=O)O)C(=O)N[C@H](C(=O)N[C@H](C(=O)N[C@H](C(=O)O)C(C)C)[C@@H](C)O)[C@@H](C)O` [FRPD4], the IC50 at PSG G322A (PSD-95) (setting [5]) worked out at 3.4 µM; at PSG G335A (PSD-95) (setting [6]) it was 2.55 µM; at PSG F325A (PSD-95) (FP displacement of FITC-15 AA CRIPT probe by PSD library peptide, protein PSG F325A) it was 18 µM; at PSG (PSD-95) [1] (FP displacement of FITC-15 AA CRIPT probe by PSD library peptide, protein PSG (wild type)), 6 µM; at PSG G322A G335A (PSD-95) [2] (FP displacement of FITC-15 AA CRIPT probe by PSD library peptide, protein PSG G322A G335A), 2.47 µM. Further, the Ki on PSG G322A (PSD-95) (setting [5]) is 1.33 µM; at PSG G335A (PSD-95) (setting [6]), 0.753 µM; on PSG F325A (PSD-95) (read-out: Ki (µM), PSG F325A, FP displacement of FITC-15 AA CRIPT probe by PSD library peptide, protein PSG F325A), 9 µM; at PSG (PSD-95) [1] (setting [7]), < 75 µM; at PSG (PSD-95) [1] (read-out: Ki (µM), PSG, FP displacement of FITC-15 AA CRIPT probe by PSD library peptide, protein PSG (wild type)) it was 2.43 µM; on PSG G322A G335A (PSD-95) [2] (read-out: Ki (µM), PSG G322A G335A, FP displacement of FITC-15 AA CRIPT probe by PSD library peptide, protein PSG G322A G335A) it was 0.777 µM.

For `CC(C)C[C@H](NC(=O)[C@@H](NC(=O)[C@H](CCCCN)NC(=O)[C@H](CCCCN)NC(=O)[C@H](Cc1ccc(O)cc1)NC(=S)Nc1ccc2c(c1)C(=O)OC21c2ccc(O)cc2Oc2cc(O)ccc21)C(C)C)C(=O)N[C@@H](CC(=O)O)C(=O)N[C@H](C(=O)N[C@@H](CCCCN)C(=O)N[C@@H](CC(N)=O)C(=O)N[C@@H](Cc1ccc(O)cc1)C(=O)N[C@@H](CCCCN)C(=O)N[C@@H](CCC(N)=O)C(=O)N[C@H](C(=O)N[C@@H](CO)C(=O)N[C@H](C(=O)O)C(C)C)[C@@H](C)O)[C@@H](C)O` [FITC-15 AA CRIPT], the Kd at PSG G322A G335A (PSD-95) [3] was found to be 0.16 ± 0.02 µM; on PSG (PSD-95) [4], 2.2 ± 0.22 µM.

Take `CC(=O)N[C@@H](Cc1ccc(O)cc1)C(=O)N[C@@H](CCC(N)=O)C(=O)N[C@@H](CCCNC(=N)N)C(=O)NCC(=O)N[C@@H](CO)C(=O)N[C@@H](Cc1ccccc1)C(=O)N1CCC[C@H]1C(=O)N1CCC[C@H]1C(=O)N[C@@H](Cc1c[nH]c2ccccc12)C(=O)N[C@H](C(=O)N[C@@H](CCC(N)=O)C(=O)N[C@@H](CCC(N)=O)C(=O)N[C@H](C(=O)N[C@@H](CCCNC(=N)N)C(=O)N[C@H](C(=O)O)C(C)C)[C@@H](C)O)C(C)C` [SYNGAP⍺1]: the IC50 on PSG G322A (PSD-95) (setting [8]) came out at 1.31 µM; on PSG G335A (PSD-95) (setting [8]), 1.12 µM; on PSG F325A (PSD-95) (setting [8]), 8 µM; on PSG (PSD-95) [1] (setting [8]) it was 4.24 µM; at PSG G322A G335A (PSD-95) [2] (setting [10]), 0.922 µM. Besides, the Ki was 0.4 µM on PSG G322A (PSD-95) (setting [8]); 0.24 µM at PSG G335A (PSD-95) (setting [8]); < 75 µM on PSG (PSD-95) [1] (setting [7]); 0.913 µM at PSG (PSD-95) [1] (setting [9]); 0.243 µM at PSG G322A G335A (PSD-95) [2] (setting [11]).

Take `CC(=O)N[C@@H](Cc1ccc(O)cc1)C(=O)N[C@@H](CO)C(=O)N[C@@H](CC(C)C)C(=O)N[C@@H](CO)C(=O)N[C@@H](CCCCN)C(=O)N[C@@H](Cc1c[nH]cn1)C(=O)N[C@@H](CCC(=O)O)C(=O)N[C@@H](CO)C(=O)N[C@@H](CCC(=O)O)C(=O)N[C@@H](Cc1ccc(O)cc1)C(=O)N[C@@H](CC(N)=O)C(=O)N[C@H](C(=O)N[C@H](C(=O)N[C@@H](CCCNC(=N)N)C(=O)N[C@H](C(=O)O)C(C)C)[C@@H](C)O)[C@@H](C)O` [NETO1]: the Ki on PSG G322A (PSD-95) (setting [8]) is 45 µM; at PDZ3 (PSD-95) (setting [12]), 75 µM; at PDZ3 (PSD-95) (setting [13]) it was < 75 µM; at PSG G335A (PSD-95) (setting [8]), 27 µM; on PSG (PSD-95) [1] (setting [9]), 101 µM; on PSG G322A G335A (PSD-95) [2] (setting [11]), 22 µM. In addition, the IC50 came to 182 µM at PDZ3 (PSD-95), 77 µM on PSG G335A (PSD-95) (setting [8]), 239 µM on PSG (PSD-95) [1] (setting [8]) and 63 µM on PSG G322A G335A (PSD-95) [2] (setting [10]).

Regarding Ac-YSSPAQSVTPVQTVV [MTMR2], the IC50 on PSG G322A (PSD-95) (setting [14]) came to 295 µM; on PDZ3 (PSD-95) it was 333 µM; at PSG G335A (PSD-95) (setting [14]), 277 µM; on PSG (PSD-95) [1] (setting [14]), 271 µM. The Ki at PDZ3 (PSD-95) (Ki (µM), PDZ3, FP displacement of FITC-15 AA CRIPT probe by library peptide) was found to be 139 µM; at PSG G335A (PSD-95) (setting [14]) it was 99 µM; at PSG (PSD-95) [1] (read-out: Ki (µM), PSG, FP displacement of FITC-15 AA CRIPT probe by library peptide) it was 115 µM; at PSG G322A G335A (PSD-95) [2] (FP displacement of 5 nM FITC-15 AA CRIPT by non-labeled acetylated peptide, room temperature, Ki from IC50, PSG G322A G335A) it was 95 µM.

For `CC[C@H](C)[C@H](NC(=O)[C@H](Cc1ccccc1)NC(=O)[C@H](CO)NC(=O)[C@H](CCCNC(=N)N)NC(=O)[C@H](CCCCN)NC(=O)[C@@H]1CCCN1C(=O)[C@H](CCCCN)NC(=O)[C@H](C)NC(=O)[C@H](C)NC(=O)[C@@H](NC(=O)[C@H](Cc1ccc(O)cc1)NC(C)=O)[C@@H](C)O)C(=O)N[C@@H](CCC(=O)O)C(=O)N[C@@H](CO)C(=O)N[C@@H](CC(N)=O)C(=O)N[C@H](C(=O)O)C(C)C` [TANC1], the IC50 at PSG G322A (PSD-95) (setting [8]) is 21 µM; at PDZ3 (PSD-95), 58 µM; on PSG G335A (PSD-95) (setting [8]), 24 µM; at PSG (PSD-95) [1] (setting [8]) it was 67 µM; on PSG G322A G335A (PSD-95) [2] (setting [10]) it was 12 µM. Moreover, the Ki at PSG G322A (PSD-95) (setting [8]) was 9 µM; on PDZ3 (PSD-95) (setting [12]) it was 23 µM; at PDZ3 (PSD-95) (setting [13]) it was < 75 µM; on PSG G335A (PSD-95) (setting [8]), 8.45 µM; at PSG (PSD-95) [1] (setting [7]), < 75 µM; at PSG (PSD-95) [1] (setting [9]), 28 µM. The Ki at PSG G322A G335A (PSD-95) [2] (setting [11]) was found to be 4 µM.

Regarding “FL CC ADGRB1: expressed full-length coiled-coil C-terminal part of ADGRB1, residues 1,471–1,584”, the “Higher affinity for PDZ1-2 in comparison with PSG WT” value in the assay on PDZ1-2 (PSD-95) came out at 3 fold.
